In ChEMBL document CHEMBL1909046, “DrugMatrix in vitro pharmacology data”:

Assays:
[1] = target: cGMP-specific 3',5'-cyclic phosphodiesterase (Homo sapiens, UniProt O76074); assay: DRUGMATRIX: Phosphodiesterase PDE5 enzyme inhibition (substrate: [3H]cGMP + cGMP); format: tissue-based, Platelet; conditions: platelet; Not Active = under 50% inhibition at 10 µM
[2] = target: T1, Alpha-1A adrenergic receptor (Rattus norvegicus, UniProt P43140); assay: DRUGMATRIX: Alpha-1A adrenergic receptor radioligand binding (ligand: prazosin); format: cell membranes, Wistar, Submaxillary gland, Membrane; conditions: Not Active = under 50% inhibition at 10 µM
T1 sequence (P43140 whole entry): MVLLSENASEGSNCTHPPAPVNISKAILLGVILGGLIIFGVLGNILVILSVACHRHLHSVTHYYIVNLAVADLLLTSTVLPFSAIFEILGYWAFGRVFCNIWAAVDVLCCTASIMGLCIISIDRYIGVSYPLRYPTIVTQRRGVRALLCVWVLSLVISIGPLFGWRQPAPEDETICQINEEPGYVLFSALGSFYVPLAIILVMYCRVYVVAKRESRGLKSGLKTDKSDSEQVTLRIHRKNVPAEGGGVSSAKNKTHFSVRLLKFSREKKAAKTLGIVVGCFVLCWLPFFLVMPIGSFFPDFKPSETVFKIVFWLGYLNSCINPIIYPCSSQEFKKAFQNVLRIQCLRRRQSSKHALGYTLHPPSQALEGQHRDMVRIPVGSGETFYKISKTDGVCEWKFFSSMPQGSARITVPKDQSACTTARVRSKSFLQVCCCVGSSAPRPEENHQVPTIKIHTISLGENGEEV

[3] = target: T2, Progesterone receptor (Bos taurus, UniProt Q690N0); assay: DRUGMATRIX: Progesterone radioligand binding (ligand: [3H] R-5020); format: tissue-based, Uterus; conditions: Not Active = under 50% inhibition at 10 µM
T2 sequence (Q690N0 whole entry): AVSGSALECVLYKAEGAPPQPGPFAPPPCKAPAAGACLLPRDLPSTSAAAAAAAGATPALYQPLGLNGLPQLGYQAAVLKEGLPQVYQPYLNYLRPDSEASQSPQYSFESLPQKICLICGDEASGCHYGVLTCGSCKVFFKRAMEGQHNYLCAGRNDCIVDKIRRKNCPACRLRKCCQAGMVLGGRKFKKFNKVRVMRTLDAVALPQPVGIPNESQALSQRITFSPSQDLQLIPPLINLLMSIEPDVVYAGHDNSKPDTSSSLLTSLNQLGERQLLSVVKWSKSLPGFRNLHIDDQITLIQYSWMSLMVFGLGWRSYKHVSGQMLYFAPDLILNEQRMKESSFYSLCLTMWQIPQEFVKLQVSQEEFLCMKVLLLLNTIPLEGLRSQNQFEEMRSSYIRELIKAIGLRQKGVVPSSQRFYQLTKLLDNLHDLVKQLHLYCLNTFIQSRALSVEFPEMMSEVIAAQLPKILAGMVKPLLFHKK

[4] = target: Melanocortin receptor 5 (Homo sapiens, UniProt P33032); format: cell membranes, HEK293, Membrane; conditions: hek293; also: in other assays of this panel Not Active means under 50% inhibition at 10 µM
Chain of Melanocortin receptor 5 (P33032 whole entry): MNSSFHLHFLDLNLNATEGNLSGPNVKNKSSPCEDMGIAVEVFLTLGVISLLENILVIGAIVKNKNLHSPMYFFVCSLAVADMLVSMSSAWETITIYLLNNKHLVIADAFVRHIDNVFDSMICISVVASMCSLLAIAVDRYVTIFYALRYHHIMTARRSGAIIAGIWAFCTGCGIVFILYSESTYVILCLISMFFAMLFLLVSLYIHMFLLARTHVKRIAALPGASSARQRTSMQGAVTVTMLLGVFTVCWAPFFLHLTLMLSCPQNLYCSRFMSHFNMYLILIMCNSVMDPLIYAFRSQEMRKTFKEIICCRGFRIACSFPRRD

[5] = target: Voltage-gated inwardly rectifying potassium channel KCNH2 (Homo sapiens, UniProt Q12809); conditions: hek293; also: in other assays of this panel Not Active means under 50% inhibition at 10 µM
Chain of Voltage-gated inwardly rectifying potassium channel KCNH2 (Q12809 whole entry): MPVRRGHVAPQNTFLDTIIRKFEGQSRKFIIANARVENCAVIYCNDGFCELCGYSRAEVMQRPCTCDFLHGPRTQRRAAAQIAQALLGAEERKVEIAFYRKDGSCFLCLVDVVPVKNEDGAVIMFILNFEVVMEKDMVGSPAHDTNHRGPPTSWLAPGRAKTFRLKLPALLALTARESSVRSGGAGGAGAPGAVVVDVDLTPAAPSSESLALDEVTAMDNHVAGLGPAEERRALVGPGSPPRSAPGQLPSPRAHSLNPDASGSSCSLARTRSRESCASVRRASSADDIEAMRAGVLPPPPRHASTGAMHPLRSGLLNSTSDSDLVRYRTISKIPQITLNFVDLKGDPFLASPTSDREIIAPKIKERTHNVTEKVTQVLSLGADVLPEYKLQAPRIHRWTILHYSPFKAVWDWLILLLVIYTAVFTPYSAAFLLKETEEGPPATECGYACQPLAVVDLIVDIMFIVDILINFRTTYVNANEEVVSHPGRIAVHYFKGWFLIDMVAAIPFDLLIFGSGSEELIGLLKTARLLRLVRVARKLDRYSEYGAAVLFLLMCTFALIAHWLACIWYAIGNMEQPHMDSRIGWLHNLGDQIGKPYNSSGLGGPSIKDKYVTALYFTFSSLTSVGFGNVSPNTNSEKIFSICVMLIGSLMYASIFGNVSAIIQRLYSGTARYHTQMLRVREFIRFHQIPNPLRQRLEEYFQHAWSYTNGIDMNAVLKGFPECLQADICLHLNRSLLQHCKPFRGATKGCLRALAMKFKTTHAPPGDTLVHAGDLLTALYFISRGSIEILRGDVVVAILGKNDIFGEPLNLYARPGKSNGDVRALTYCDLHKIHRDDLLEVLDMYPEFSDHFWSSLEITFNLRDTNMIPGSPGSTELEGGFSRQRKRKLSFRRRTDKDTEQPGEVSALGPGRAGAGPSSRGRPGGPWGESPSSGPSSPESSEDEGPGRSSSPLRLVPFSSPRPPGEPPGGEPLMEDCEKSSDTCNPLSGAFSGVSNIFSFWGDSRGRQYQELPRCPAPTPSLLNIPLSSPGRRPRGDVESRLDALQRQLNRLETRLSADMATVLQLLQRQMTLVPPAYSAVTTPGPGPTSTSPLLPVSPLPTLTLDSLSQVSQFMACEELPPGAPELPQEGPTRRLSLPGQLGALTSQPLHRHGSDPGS

[6] = DRUGMATRIX: GABAA, Muscimol, Central radioligand binding (ligand: [3H] Muscimol); format: cell membranes, Rattus norvegicus, Wistar, Brain, Membrane; conditions: Not Active = under 50% inhibition at 10 µM
[7] = DRUGMATRIX: Glutamate, NMDA, Agonism radioligand binding (ligand: [3H] CGP-39653); format: cell membranes, Rattus norvegicus, Wistar, Cerebral cortex, Membrane; conditions: Not Active = under 50% inhibition at 10 µM
[8] = target: Platelet-activating factor receptor (Homo sapiens, UniProt P25105); format: tissue-based; also: in other assays of this panel Not Active means under 50% inhibition at 10 µM
Chain of Platelet-activating factor receptor (P25105 whole entry): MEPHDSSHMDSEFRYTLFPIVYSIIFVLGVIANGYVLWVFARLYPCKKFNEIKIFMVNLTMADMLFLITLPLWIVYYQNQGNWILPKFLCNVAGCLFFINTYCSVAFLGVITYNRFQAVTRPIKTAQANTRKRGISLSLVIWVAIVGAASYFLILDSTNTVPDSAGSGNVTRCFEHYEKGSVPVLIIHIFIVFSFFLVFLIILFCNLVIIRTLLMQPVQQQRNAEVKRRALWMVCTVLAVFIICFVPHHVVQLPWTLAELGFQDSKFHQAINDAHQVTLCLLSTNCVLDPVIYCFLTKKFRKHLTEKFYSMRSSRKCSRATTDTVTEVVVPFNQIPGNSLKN

CC(=O)Nc1ccc2c(c1)Cc1ccccc1-2 [2-ACETYLAMINOFLUORENE]
Not Active: IC50 [1] | IC50 [2] | IC50 [3] | IC50 [4] | IC50 [5] | Ki [5] | IC50 [6] | Ki [6] | IC50 [7] | Ki [7] | IC50 [8]

CCN1CCN(c2cc3c(cc2F)c(=O)c(C(=O)O)cn3C2CC2)CC1 [ENROFLOXACIN]
Not Active: IC50 [1] | IC50 [2] | IC50 [3] | IC50 [4] | IC50 [5] | Ki [5] | IC50 [6] | Ki [6] | IC50 [7] | Ki [7] | IC50 [8]

O=C(O)CO [GLYCOLIC ACID]
Not Active: IC50 [1] | IC50 [2] | IC50 [3] | IC50 [4] | IC50 [5] | Ki [5] | IC50 [6] | Ki [6] | IC50 [7] | Ki [7] | IC50 [8]

CN(Cc1cc(Br)cc(Br)c1N)C1CCCCC1 [BROMHEXINE]
Not Active: IC50 [1] | IC50 [2] | IC50 [3] | IC50 [4] | IC50 [5] | Ki [5] | IC50 [6] | Ki [6] | IC50 [7] | Ki [7] | IC50 [8]

CC12CCC(CC1)C(C)(C)O2 [EUCALYPTOL]
Not Active: IC50 [1] | IC50 [2] | IC50 [3] | IC50 [4] | IC50 [5] | Ki [5] | IC50 [6] | Ki [6] | IC50 [7] | Ki [7] | IC50 [8]

C[C@@H]1[C@H](O)[C@@H](C)/C=C/C=C/C=C/C=C/C=C/C=C/C=C/[C@H](O[C@@H]2O[C@H](C)[C@@H](O)[C@H](N)[C@@H]2O)C[C@@H]2O[C@](O)(C[C@@H](O)C[C@@H](O)[C@H](O)CC[C@@H](O)C[C@@H](O)CC(=O)O[C@H]1C)C[C@H](O)[C@H]2C(=O)O [AMPHOTERICIN B]
Not Active: IC50 [1] | IC50 [2] | IC50 [3] | IC50 [4] | IC50 [5] | Ki [5] | IC50 [6] | Ki [6] | IC50 [7] | Ki [7] | IC50 [8]

CCN(CCO)CCCC(C)Nc1ccnc2cc(Cl)ccc12 (stereo unspecified) [HYDROXYCHLOROQUINE]
Not Active: IC50 [1] | IC50 [2] | IC50 [3] | IC50 [4] | IC50 [5] | Ki [5] | IC50 [6] | Ki [6] | IC50 [7] | Ki [7] | IC50 [8]

CC12CCC(CC1=O)C2(C)C (stereo unspecified) [CAMPHOR]
Not Active: IC50 [1] | IC50 [2] | IC50 [3] | IC50 [4] | IC50 [5] | Ki [5] | IC50 [6] | Ki [6] | IC50 [7] | Ki [7] | IC50 [8]

CCC1(c2ccccc2)C(=O)NC(=O)NC1=O [PHENOBARBITAL]
Not Active: IC50 [1] | IC50 [2] | IC50 [3] | IC50 [4] | IC50 [5] | Ki [5] | IC50 [6] | Ki [6] | IC50 [7] | Ki [7] | IC50 [8]

C[N+](C)(C)CCOP(=O)([O-])OC[C@H](O)CO
Not Active: IC50 [1] | IC50 [2] | IC50 [3] | IC50 [4] | IC50 [5] | Ki [5] | IC50 [6] | Ki [6] | IC50 [7] | Ki [7] | IC50 [8]

Nc1nc(F)nc2c1ncn2[C@@H]1O[C@H](CO)[C@@H](O)[C@@H]1O [FLUDARABINE]
Not Active: IC50 [1] | IC50 [2] | IC50 [3] | IC50 [4] | IC50 [5] | Ki [5] | IC50 [6] | Ki [6] | IC50 [7] | Ki [7] | IC50 [8]

c1ccc(Cn2ccnc2)cc1
Not Active: IC50 [1] | IC50 [2] | IC50 [3] | IC50 [4] | IC50 [5] | Ki [5] | IC50 [6] | Ki [6] | IC50 [7] | Ki [7] | IC50 [8]

Nc1nc(N)c2nc(CNc3ccc(C(=O)N[C@@H](CCC(=O)O)C(=O)O)cc3)cnc2n1 [AMINOPTERIN]
Not Active: IC50 [1] | IC50 [2] | IC50 [3] | IC50 [4] | IC50 [5] | Ki [5] | IC50 [6] | Ki [6] | IC50 [7] | Ki [7] | IC50 [8]

C=C(Cl)Cl [1,1-DICHLOROETHENE]
Not Active: IC50 [1] | IC50 [2] | IC50 [3] | IC50 [4] | IC50 [5] | Ki [5] | IC50 [6] | Ki [6] | IC50 [7] | Ki [7] | IC50 [8]

Oc1ncnc2[nH]ncc12 [ALLOPURINOL]
Not Active: IC50 [1] | IC50 [2] | IC50 [3] | IC50 [4] | IC50 [5] | Ki [5] | IC50 [6] | Ki [6] | IC50 [7] | Ki [7] | IC50 [8]

O=C(O)CCc1nc(-c2ccccc2)c(-c2ccccc2)o1 [OXAPROZIN]
Not Active: IC50 [1] | IC50 [2] | IC50 [3] | IC50 [4] | IC50 [5] | Ki [5] | IC50 [6] | Ki [6] | IC50 [7] | Ki [7] | IC50 [8]
